According to publication PMC7245553 (Cell chemical biology, 2020):
Values after ≈ are worked out from the molar mass of the structure shown. Values joined by “and” are separate entries in the source; they are usually repeats but may differ in a detail not shown here. Equal values may be shown once. Read-outs that look alike come from different tables or passages of the source.

Tests used:
M. tuberculosis [1] = assay: M. tuberculosis MBC assay; assay type: cell-based; conditions: Mycobacterium tuberculosis
[2] = assay type: in vitro ADME; conditions: mouse, 5 µM
M. tuberculosis H37Rv [3] = assay: Mouse model of acute M. tuberculosis infection; assay type: in vivo, BALB/c mice; conditions: for bacterial load in the spleen: po qd
[4] = assay type: in vitro ADME; conditions: human, 5 µM
[5] = test system: CYP1A2, CYP2C9, CYP2C19, CYP2D6, CYP3A4 (one value for the profile of isoforms; except 2C19 for compound 10); assay: in vitro; assay type: in vitro ADME; conditions: human, pH 7.4
[6] = test system: M. tuberculosis mc^26206 within J774.1 cells; assay: microbe, parasite or virus in culture; assay type: cell-based; conditions: Mycobacterium tuberculosis, J774.1, read-out: IC50, intracellular growth of M. tuberculosis mc^26206 within J774.1 cells
in vitro = assay type: cell-based; conditions: African green monkey
[7] = Mouse liver microsomal stability; assay type: in vitro ADME; conditions: pH 7.4
M. tuberculosis H37Rv [8] = assay: M. tuberculosis MIC assay; conditions: for MIC H37Rv: 90% inhibition of bacterial growth, Alamar blue
M. tuberculosis [9] = assay: M. tuberculosis killing kinetics; assay type: cell-based, Mycobacterium tuberculosis; conditions: for cidality in vitro: H37Rv strain; for killing in combination with INH: each at 10× MIC
M. tuberculosis [10] = assay: Mouse model of chronic M. tuberculosis infection; assay type: in vivo, BALB/c mice; conditions: for reduction in CFUs, controls: 10 or 20 mg/kg qd po
physchem = assay type: physicochemical; conditions: pH 7.4, aqueous buffer, kinetic from dmso stock
[11] = Mouse pharmacokinetic profiling; assay type: in vivo, CD-1 mice; conditions: female, CD-1, mouse; for AUC(0-t): po
cytochrome P450 2C19 = cytochrome P450 2C19 (Homo sapiens, UniProt P33261); assay: Human cytochrome P450 2C19 inhibition; assay type: in vitro ADME
cytochrome P450 2C19, sequence (P33261 whole entry): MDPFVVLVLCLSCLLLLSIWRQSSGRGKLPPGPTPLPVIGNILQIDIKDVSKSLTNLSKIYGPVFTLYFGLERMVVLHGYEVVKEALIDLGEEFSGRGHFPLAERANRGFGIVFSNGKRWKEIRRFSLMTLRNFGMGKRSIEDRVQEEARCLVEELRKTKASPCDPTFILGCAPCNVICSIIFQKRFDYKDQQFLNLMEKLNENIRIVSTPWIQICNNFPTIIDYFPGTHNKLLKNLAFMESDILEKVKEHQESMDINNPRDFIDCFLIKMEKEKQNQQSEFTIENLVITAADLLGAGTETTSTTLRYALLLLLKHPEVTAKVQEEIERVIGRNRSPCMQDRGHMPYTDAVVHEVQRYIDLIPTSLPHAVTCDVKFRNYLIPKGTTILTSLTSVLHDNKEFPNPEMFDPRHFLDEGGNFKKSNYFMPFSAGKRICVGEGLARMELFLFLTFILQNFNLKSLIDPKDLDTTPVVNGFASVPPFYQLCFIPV

Enterococcus faecium = assay: MIC versus Enterococcus faecium; assay type: cell-based
Enterobacter cloacae = assay: MIC versus Enterobacter cloacae; assay type: cell-based
KasA = KasA (Mycobacterium tuberculosis, UniProt P9WQD9); assay: Microscale thermophoresis binding assay
KasA, sequence (P9WQD9 whole entry): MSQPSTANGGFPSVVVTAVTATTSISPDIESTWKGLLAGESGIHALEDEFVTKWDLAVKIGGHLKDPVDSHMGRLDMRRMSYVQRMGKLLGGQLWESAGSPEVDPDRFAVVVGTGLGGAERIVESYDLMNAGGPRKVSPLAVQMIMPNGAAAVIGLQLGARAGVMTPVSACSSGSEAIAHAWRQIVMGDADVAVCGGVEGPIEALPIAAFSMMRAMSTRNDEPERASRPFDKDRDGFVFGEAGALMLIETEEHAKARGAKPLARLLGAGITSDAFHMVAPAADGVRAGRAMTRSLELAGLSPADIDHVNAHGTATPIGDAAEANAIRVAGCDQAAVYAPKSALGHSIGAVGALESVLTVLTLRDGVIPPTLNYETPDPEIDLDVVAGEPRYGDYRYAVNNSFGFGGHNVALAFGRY

Klebsiella pneumoniae = assay: MIC versus Klebsiella pneumoniae; assay type: cell-based
Pseudomonas aeruginosa = assay: MIC versus Pseudomonas aeruginosa; assay type: cell-based
[12] = test system: mycolic acid biosynthesis within M. tuberculosis H37Rv; assay: Mycolic acid biosynthesis analysis; assay type: cell-based, Mycobacterium tuberculosis
hERG = hERG (Homo sapiens, UniProt Q12809); assay: hERG inhibition; assay type: biochemical
hERG, sequence (Q12809 whole entry): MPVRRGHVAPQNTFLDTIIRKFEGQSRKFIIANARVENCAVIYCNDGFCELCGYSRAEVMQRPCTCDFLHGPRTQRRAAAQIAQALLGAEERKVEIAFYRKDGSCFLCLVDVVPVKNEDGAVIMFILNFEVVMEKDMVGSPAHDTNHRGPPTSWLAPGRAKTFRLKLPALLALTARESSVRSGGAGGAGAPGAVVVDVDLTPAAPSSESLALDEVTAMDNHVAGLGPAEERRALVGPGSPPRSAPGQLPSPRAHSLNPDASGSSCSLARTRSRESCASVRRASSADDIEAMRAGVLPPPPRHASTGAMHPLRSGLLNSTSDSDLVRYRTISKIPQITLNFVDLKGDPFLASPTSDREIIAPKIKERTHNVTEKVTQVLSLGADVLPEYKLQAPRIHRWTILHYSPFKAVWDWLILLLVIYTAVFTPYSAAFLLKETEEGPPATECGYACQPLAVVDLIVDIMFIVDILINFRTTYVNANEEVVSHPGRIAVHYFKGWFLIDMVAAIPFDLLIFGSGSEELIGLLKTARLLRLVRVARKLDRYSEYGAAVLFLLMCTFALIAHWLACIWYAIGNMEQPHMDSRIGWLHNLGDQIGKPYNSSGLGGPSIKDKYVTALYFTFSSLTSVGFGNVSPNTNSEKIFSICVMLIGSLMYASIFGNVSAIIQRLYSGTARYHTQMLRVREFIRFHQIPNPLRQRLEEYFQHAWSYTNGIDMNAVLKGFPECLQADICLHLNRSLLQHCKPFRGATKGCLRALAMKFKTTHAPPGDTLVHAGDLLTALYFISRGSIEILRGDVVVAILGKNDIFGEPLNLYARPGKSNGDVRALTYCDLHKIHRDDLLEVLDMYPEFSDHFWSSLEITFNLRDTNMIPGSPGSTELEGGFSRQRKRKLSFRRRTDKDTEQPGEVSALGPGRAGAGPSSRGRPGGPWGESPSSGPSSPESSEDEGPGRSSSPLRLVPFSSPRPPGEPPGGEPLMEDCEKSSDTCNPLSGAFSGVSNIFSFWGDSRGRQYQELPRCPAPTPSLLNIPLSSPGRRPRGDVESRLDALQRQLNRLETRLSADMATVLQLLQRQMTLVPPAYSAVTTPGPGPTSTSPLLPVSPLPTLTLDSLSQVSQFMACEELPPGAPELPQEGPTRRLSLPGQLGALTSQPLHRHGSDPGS

[13] = Dog liver microsomal stability; assay type: in vitro ADME; conditions: pH 7.4
Staphylococcus aureus = assay: MIC versus Staphylococcus aureus; assay type: cell-based

SMILES | IC50 [6] [µM] | CC50 (in vitro) [µM] | MIC H37Rv (M. tuberculosis H37Rv [8]) | solubility kinetic at 4 h (physchem) [µM] | Kp at 5 h ([11]; in vivo) | t > MIC ([11]; in vivo) [h] | AUC(0-t) ([11]; in vivo) [ng·h/mL] | further results
CCCCS(=O)(=O)Nc1ccc2[nH]c(C#N)c(C)c2c1 [Compound 9, N-(2-cyano-3-methyl-1H-indol-5-yl)butane-1-sulfonamide] | 0.19 | 170 | 0.78 µM (≈ 0.227 µg/mL) | – | – | – | – | MBC (M. tuberculosis [1]): 1.4 to 2.7 µM (≈ 0.408 to 0.787 µg/mL); plasma stability at 5 h [2]: ≥ 80%; increase of CFU in the lungs versus start of treatment (M. tuberculosis H37Rv [3]; 100 mg/kg po qd): about 1 log10 CFU; bacterial load in the spleen (M. tuberculosis H37Rv [3]): did not reduce the bacterial load in the spleen; plasma stability at 5 h [4]: ≥ 80%; IC50 at 20 min [5]: > 1 µM; half-life ([7]; mouse liver microsomes): 6.51 min; MIC (M. tuberculosis H37Rv [8]; H37Rv): 780 µM (≈ 227 µg/mL); reduction in CFUs, killing kinetics (M. tuberculosis [9]; 103 MIC of compound, over 7 days, followed by re-growth): > 2 log10; cidality in vitro (M. tuberculosis [9]): in vitro bactericidal
NNC(=O)c1ccncc1 [INH, isoniazid, reference compound] | 0.5 | – | – | – | – | – | – | reduction in CFUs, controls (M. tuberculosis [10]; 4 weeks): ~ 2 log10; reduction in CFU, killing kinetics (M. tuberculosis [9]; 103 MIC, over 4 days, with rapid re-growth): > 3 log10
CCCCS(=O)(=O)Nc1ccc2[nH]c(C(N)=O)c(C)c2c1 [Compound 8, 5-(butylsulfonamido)-3-methyl-1H-indole-2-carboxamide] | – | > 160 | 3.1 µM (≈ 0.959 µg/mL) | 45.5 (≈ 14.1 µg/mL) | – | – | – | half-life ([7]; microsomes): 6.16 min
CCCCS(=O)(=O)Nc1ccc2[nH]nc(Cl)c2c1 [Compound 14, N-(3-chloro-1H-indazol-5-yl)butane-1-sulfonamide] | – | 22 | 0.39 µM (≈ 0.112 µg/mL) | 443 (≈ 127 µg/mL) | 0.6 | 5 | 51700 | half-life ([7]; microsomes): 32.1 min
CCCCCS(=O)(=O)Nc1ccc2[nH]c(C#N)c(C)c2c1 [Compound 10, N-(2-cyano-3-methyl-1H-indol-5-yl)pentane-1-sulfonamide] | 0.078 | 160 | 0.2 µM and 0.20 µM | – | – | – | – | MBC (M. tuberculosis [1]): 0.65 to 1.3 µM (≈ 0.199 to 0.397 µg/mL); plasma stability at 5 h [2]: ≥ 80%; IC50 (cytochrome P450 2C19): 0.542 µM; bacterial growth in the lungs (M. tuberculosis H37Rv [3]; 100 mg/kg): permissive of bacterial growth in the lungs; activity in the lungs (M. tuberculosis H37Rv [3]; 200-mg/kg dosing regimen): bacteriostatic activity in the lungs; bacterial load in the spleen (M. tuberculosis H37Rv [3]): did not reduce the bacterial load in the spleen; plasma stability at 5 h [4]: ≥ 80%; IC50 at 20 min [5]: > 1 µM; half-life ([7]; mouse liver microsomes): 4.08 min; cidality in vitro (M. tuberculosis [9]): in vitro bactericidal; killing in combination with INH (M. tuberculosis [9]): culture sterilization
Cc1n[nH]c2ccc(NS(=O)(=O)CCCCF)cc12 [JSF-3285, 4-fluoro-N-(3-methyl-1H-indazol-5-yl)butane-1-sulfonamide] | 0.046 | 170 | 0.20 µM (≈ 0.0571 µg/mL) | 175 (≈ 49.9 µg/mL) | – | 5 | 59300 | MIC (Enterococcus faecium): > 50 µg/mL; MIC (Enterobacter cloacae): > 50 µg/mL; increase in mouse plasma exposure (AUC0–5h) over DG167 ([11]; in vivo): 30 fold; Kp at 5 h ([11]; lung and plasma, oral): 0.75; reduction in lung bacterial burden (CFUs) versus start of treatment (M. tuberculosis H37Rv [3]; 100 or 200 mg/kg qd po, 4 weeks of treatment): ~ 2 log10; improvement of efficacy of INH or RIF regimen on addition (M. tuberculosis [10]; 200 mg/kg added to 10 mg/kg INH or RIF): ~ 1 log10; additional reduction of bacterial burden compared to INH- and RIF-only treatment (M. tuberculosis [10]; 200 mg/kg alone): ~ 1 log10 CFUs; reduction of bacterial burden in the mouse lungs versus start of treatment (M. tuberculosis [10]; 200 mg/kg qd po alone or with 10 mg/kg INH or RIF, 4 weeks): more than 2 log10 CFUs; reduction in CFUs in infected lungs (M. tuberculosis [10]; 200–5 mg/kg qd and 20 mg/kg qd or bid, 4 weeks of treatment): 1.5–2.0 log10; Kd (KasA): 0.0707 ± 0.0235 µM; MIC (Klebsiella pneumoniae): > 50 µg/mL; MIC (Pseudomonas aeruginosa): > 50 µg/mL; mycolic acid biosynthesis [12]: inhibited mycolic acid biosynthesis; IC50 (hERG): > 50 µM; half-life ([13]; microsomes): 48.2 min; intrinsic clearance (Clint) in dog liver microsomes [13]: 124 µL/min/mg; half-life ([7]; mouse liver microsomes): 28.4 min; cidality in vitro (M. tuberculosis [9]): cidal to the H37Rv strain; killing in combination with INH (M. tuberculosis [9]): culture sterilization; MIC (Staphylococcus aureus): > 50 µg/mL
O=S(=O)(CCCCF)Nc1ccc2[nH]nc(Cl)c2c1 [Compound 18, N-(3-chloro-1H-indazol-5-yl)-4-fluorobutane-1-sulfonamide] | – | 160 | 0.20 µM (≈ 0.0612 µg/mL) | – | – | – | – | –
CCCCCS(=O)(=O)Nc1ccc2[nH]nc(Cl)c2c1 [Compound 17, N-(3-chloro-1H-indazol-5-yl)pentane-1-sulfonamide] | – | 170 | 0.39 µM (≈ 0.118 µg/mL) | – | 1.7 | 5 | 34800 | –
CCCCS(=O)(=O)Nc1ccc2[nH]c(CN)c(C)c2c1 [Compound 11, N-(2-(aminomethyl)-3-methyl-1H-indol-5-yl)butane-1-sulfonamide] | – | 170 | 100 µM (≈ 29.5 µg/mL) | – | – | – | – | –
Cc1n[nH]c2ccc(NS(=O)(=O)CCCC(F)(F)F)cc12 [Compound 15, 4,4,4-trifluoro-N-(3-methyl-1H-indazol-5-yl)butane-1-sulfonamide] | – | > 160 | 0.25 µM (≈ 0.0803 µg/mL) | – | 0.95 | 5 | 28400 | –
CCCCS(=O)(=O)Nc1ccc2[nH]c(C(=O)OCC)c(C)c2c1 [Compound 5, ethyl 5-(butylsulfonamido)-3-methyl-1H-indole-2-carboxylate] | – | > 150 | 0.20 µM (≈ 0.0677 µg/mL) | 0.895 (≈ 0.303 µg/mL) | – | – | – | half-life ([7]; microsomes): < 0.5 min
CO[C@H]1/C=C/O[C@@]2(C)Oc3c(C)c(O)c4c(O)c(c(/C=N/N5CCN(C)CC5)c(O)c4c3C2=O)NC(=O)/C(C)=C\C=C\[C@H](C)[C@H](O)[C@@H](C)[C@@H](O)[C@@H](C)[C@H](OC(C)=O)[C@@H]1C [RIF, rifampicin, reference compound] | 0.3 | – | – | – | – | – | – | reduction in CFUs, controls (M. tuberculosis [10]; 4 weeks): ~ 2 log10
O=S(=O)(CCCC(F)(F)F)Nc1ccc2[nH]nc(Cl)c2c1 [Compound 16, N-(3-chloro-1H-indazol-5-yl)-4,4,4-trifluorobutane-1-sulfonamide] | – | > 150 | 0.20 µM (≈ 0.0683 µg/mL) | – | 1.2 | 5 | 22000 | –
CCCCS(=O)(=O)Nc1ccc2[nH]cc(C)c2c1 [Compound 4, N-(3-methyl-1H-indol-5-yl)butane-1-sulfonamide] | – | > 190 | 1.6 µM (≈ 0.426 µg/mL) | – | – | – | – | –
CCCCCS(=O)(=O)Nc1ccc2[nH]nc(C)c2c1 [Compound 13, N-(3-methyl-1H-indazol-5-yl)pentane-1-sulfonamide] | – | 89 | 0.12 µM (≈ 0.0338 µg/mL) | 476 (≈ 134 µg/mL) | 1.3 | 5 | 13900 | half-life ([7]; microsomes): 3.26 min
